Assay results taken from patent publication US7446199B2, “Compositions useful as inhibitors of protein kinases” (Vertex Pharmaceuticals Incorporated, priority 2003, dated 2008).

biological target: T1, c-KIT (Homo sapiens, UniProt P10721); experiment: Inhibition of c-KIT, radiometric filter-binding assay; type: biochemical; conditions: 700 μM ATP, 0.5 mg/mL pE4Y, room temperature
T1 construct: 0.02% BSA and 25 nM c-KIT
Protocol: Compounds are screened for their ability to inhibit c-KIT activity using a radiometric filter-binding assay. This assay monitors the ^33P incorporation into a substrate poly(Glu, Tyr) 4:1 (pE4Y). Reactions are carried out in a solution containing 100 mM HEPES (pH 7.5), 10 mM MgCl2, 25 mM NaCl, 1 mM DTT, 0.01% BSA and 2.5% DMSO. Final substrate concentrations in the assay were 700 μM ATP and 0.5 mg/mL pE4Y (both from Sigma Chemicals, St Louis, Mo.). The final concentration of compounds is generally between 0.01 and 5 μM. Typically, a 12-point titration is conducted by preparing serial dilutions from 10 mM DMSO stock of test compound. Reactions were carried out at room temperature.
Two assay solutions are prepared. Solution 1 contains 100 mM HEPES (pH 7.5), 10 mM MgCl2, 25 mM NaCl, 1 mg/ml pE4Y and 1.4 mM ATP(containing 0.5 μCi of [γ-^33P]ATP for each reaction). Solution 2 contains 100 mM HEPES (pH 7.5), 10 mM MgCl2, 25 mM NaCl, 2 mM DTT, 0.02% BSA and 25 nM c-KIT. The assay is run on a 96 well plate by mixing 33 μL of Solution1 and 1.65 μL of the test compounds. The reaction is initiated with 33 μL of Solution2. After incubation for 20 minutes at room temperature, the reaction was stopped with 50 μL of 10% TCA containing 0.2 mM of ATP. All of the reaction volume is then transferred to a filter plate and washed with 5% TCA by a Harvester9600 from TOMTEC (Hamden, Conn.). The amount of ^33P incorporation into pE4y is analyzed by a Packard TopCount Microplate Scintillation Counter (Meriden, Conn.). The data is fitted using Prism software to get an IC50 or Ki.

T1 sequence (P10721 26-976): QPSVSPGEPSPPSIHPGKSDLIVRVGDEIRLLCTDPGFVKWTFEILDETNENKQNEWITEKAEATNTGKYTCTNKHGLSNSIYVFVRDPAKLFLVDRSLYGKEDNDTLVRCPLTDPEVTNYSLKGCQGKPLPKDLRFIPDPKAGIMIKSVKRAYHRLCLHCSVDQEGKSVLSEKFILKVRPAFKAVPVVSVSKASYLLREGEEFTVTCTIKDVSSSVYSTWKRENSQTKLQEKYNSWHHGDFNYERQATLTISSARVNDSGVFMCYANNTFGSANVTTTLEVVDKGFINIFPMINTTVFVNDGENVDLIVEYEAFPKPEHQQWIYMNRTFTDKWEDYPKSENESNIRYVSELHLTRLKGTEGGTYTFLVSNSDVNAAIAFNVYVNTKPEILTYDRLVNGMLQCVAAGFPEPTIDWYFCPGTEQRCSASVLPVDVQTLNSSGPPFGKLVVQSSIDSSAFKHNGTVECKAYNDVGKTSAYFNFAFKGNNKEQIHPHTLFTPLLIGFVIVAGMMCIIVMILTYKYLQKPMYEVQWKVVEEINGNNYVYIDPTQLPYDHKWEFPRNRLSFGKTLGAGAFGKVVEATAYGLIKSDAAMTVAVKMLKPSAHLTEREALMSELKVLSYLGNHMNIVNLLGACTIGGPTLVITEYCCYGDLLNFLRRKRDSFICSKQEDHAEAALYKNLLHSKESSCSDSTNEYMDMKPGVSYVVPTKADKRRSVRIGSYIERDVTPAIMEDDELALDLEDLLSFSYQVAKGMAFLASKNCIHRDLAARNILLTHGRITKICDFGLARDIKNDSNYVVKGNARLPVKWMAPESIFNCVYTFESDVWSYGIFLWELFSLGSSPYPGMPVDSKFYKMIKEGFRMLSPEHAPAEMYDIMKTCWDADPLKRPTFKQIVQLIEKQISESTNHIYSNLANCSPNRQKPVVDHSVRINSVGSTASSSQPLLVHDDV

Ki	SMILES
< 200 nM	Fc1cccc(-c2cnoc2-c2c[nH]c3ncccc23)c1F [Compound 1, 3-[4-(2,3-Difluoro-phenyl)-isoxazol-5-yl]-1H-pyrrolo[2,3-b]pyridine]
< 200 nM	COc1cnc2[nH]cc(-c3oncc3-c3cccc(F)c3F)c2c1 [Compound 38, 3-[4-(2,3-Difluoro-phenyl)-isoxazol-5-yl]-5-methoxy-1H-pyrrolo[2,3-b]pyridine]
200 to 1000 nM	Fc1ccc(-c2cnoc2-c2c[nH]c3ncccc23)c(F)c1F [Compound 40, 3-[4-(2,3,4-Trifluoro-phenyl)-isoxazol-5-yl]-1H-pyrrolo [2,3-b]pyridine]
< 200 nM	Oc1cnc2[nH]cc(-c3oncc3-c3cccc(F)c3F)c2c1 [Compound 43, 3-[4-(2,3-Difluoro-phenyl)-isoxazol-5-yl]-1H-pyrrolo[2,3-b]pyridin-5-ol]

biological target: T2, JAK3 (Homo sapiens, UniProt P52333); experiment: JAK3 inhibition assay (ELISA, Poly (Glu, Ala, Tyr) coated plates); type: biochemical; conditions: 2 mM ATP, 60 minutes at 30° C.
T2 sequence (P52333 1-1124): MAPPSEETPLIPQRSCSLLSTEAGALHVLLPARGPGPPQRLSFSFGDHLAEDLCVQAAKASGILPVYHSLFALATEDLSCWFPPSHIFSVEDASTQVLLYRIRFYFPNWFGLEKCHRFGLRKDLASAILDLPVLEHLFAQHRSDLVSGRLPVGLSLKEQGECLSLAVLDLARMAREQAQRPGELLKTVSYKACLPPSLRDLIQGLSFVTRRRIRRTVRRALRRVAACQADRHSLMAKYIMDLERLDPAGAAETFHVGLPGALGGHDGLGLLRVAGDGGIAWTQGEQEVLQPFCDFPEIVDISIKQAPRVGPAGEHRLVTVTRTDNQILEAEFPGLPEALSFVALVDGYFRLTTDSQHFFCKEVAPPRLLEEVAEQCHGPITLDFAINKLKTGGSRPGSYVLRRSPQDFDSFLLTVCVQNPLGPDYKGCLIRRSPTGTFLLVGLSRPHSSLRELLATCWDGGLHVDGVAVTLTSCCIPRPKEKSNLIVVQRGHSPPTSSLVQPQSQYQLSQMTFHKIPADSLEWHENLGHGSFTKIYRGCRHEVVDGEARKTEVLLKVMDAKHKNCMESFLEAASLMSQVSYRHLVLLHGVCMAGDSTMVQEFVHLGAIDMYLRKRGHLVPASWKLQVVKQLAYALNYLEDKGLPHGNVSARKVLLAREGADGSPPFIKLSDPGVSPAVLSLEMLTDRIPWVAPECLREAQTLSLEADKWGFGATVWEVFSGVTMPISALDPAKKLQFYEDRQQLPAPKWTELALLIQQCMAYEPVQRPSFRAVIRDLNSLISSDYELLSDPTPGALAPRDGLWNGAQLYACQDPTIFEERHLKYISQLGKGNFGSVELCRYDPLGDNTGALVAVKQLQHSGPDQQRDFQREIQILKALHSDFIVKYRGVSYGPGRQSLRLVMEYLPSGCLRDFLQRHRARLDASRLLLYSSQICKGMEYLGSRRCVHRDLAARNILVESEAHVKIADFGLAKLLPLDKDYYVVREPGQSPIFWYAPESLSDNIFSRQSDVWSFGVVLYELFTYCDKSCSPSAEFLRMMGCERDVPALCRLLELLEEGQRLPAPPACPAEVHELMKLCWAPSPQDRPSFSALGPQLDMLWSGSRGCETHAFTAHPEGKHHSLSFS
In short: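 ELISA on Poly(Glu,Ala,Tyr) 6:3:1-coated plates with 2 mM ATP and 5 mM MgCl2. JAK enzyme started the reaction, run 60 min at 30° C. Phosphotyrosine was detected with HRP-conjugated 4G10 antibody and TMB, read at 450 nm, and IC50 was derived from optical densities.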

Ki	SMILES
1000 to 12500 nM	CN1CCN(C(=O)[C@H]2C[C@H]2c2cnc3[nH]cc(-c4oncc4-c4cccc(F)c4F)c3c2)CC1 (relative stereo) [Compound 143, cis-(2-{3-[4-(2,3-Difluoro-phenyl)-isoxazol-5-yl]-1H-pyrrolo[2,3-b]pyridin-5-yl}-cyclopropyl)-(4-methyl-piperazin-1-yl)-methanone]
200 to 1000 nM	Fc1cccc(-c2cnoc2-c2c[nH]c3ncccc23)c1F [Compound 1, 3-[4-(2,3-Difluoro-phenyl)-isoxazol-5-yl]-1H-pyrrolo[2,3-b]pyridine]
200 to 1000 nM	Clc1cccc(-c2cnoc2-c2c[nH]c3ncccc23)c1Cl [Compound 2, 3-[4-(2,3-Dichloro-phenyl)-isoxazol-5-yl]-1H-pyrrolo[2,3-b]pyridine]
1000 to 12500 nM	Fc1cccc(Cc2cnoc2-c2c[nH]c3ncccc23)c1F [Compound 36, 3-[4-(2,3-Difluoro-benzyl)-isoxazol-5-yl]-1H-pyrrolo[2,3-b]pyridine]
< 200 nM	Fc1cccc(-c2cnoc2-c2c[nH]c3ncc(Br)cc23)c1F [Compound 37, 5-Bromo-3-[4-(2,3-difluoro-phenyl)-isoxazol-5-yl]-1H-pyrrolo[2,3-b]pyridine]
< 200 nM	COc1cnc2[nH]cc(-c3oncc3-c3cccc(F)c3F)c2c1 [Compound 38, 3-[4-(2,3-Difluoro-phenyl)-isoxazol-5-yl]-5-methoxy-1H-pyrrolo[2,3-b]pyridine]
1000 to 12500 nM	Fc1ccc(-c2cnoc2-c2c[nH]c3ncccc23)c(F)c1F [Compound 40, 3-[4-(2,3,4-Trifluoro-phenyl)-isoxazol-5-yl]-1H-pyrrolo [2,3-b]pyridine]
200 to 1000 nM	Fc1c(Cl)cccc1-c1cnoc1-c1c[nH]c2ncccc12 [Compound 42, 3-[4-(3-Chloro-2-fluoro-phenyl)-isoxazol-5-yl]-1H-pyrrolo[2,3-b]pyridine]
< 200 nM	Oc1cnc2[nH]cc(-c3oncc3-c3cccc(F)c3F)c2c1 [Compound 43, 3-[4-(2,3-Difluoro-phenyl)-isoxazol-5-yl]-1H-pyrrolo[2,3-b]pyridin-5-ol]
200 to 1000 nM	c1cnc2[nH]cc(-c3oncc3C3CCCCC3)c2c1 [Compound 47, 3-(4-Cyclohexyl-isoxazol-5-yl)-1H-pyrrolo[2,3-b]pyridine]
200 to 1000 nM	CN(C)c1ccnc2[nH]cc(-c3oncc3-c3cccc(F)c3F)c12 [Compound 56, {3-[4-(2,3-Difluoro-phenyl)-isoxazol-5-yl]-1H-pyrrolo[2,3-b]pyridin-4-yl}-dimethyl-amine]
< 200 nM	Fc1cccc(-c2cnoc2-c2c[nH]c3ncc(-c4ccccc4)cc23)c1F [Compound 58, 3-[4-(2,3-Difluoro-phenyl)-isoxazol-5-yl]-5-phenyl-1H-pyrrolo[2,3-b]pyridine]
200 to 1000 nM	CC(=O)N1CCC(c2cnc3[nH]cc(-c4oncc4-c4cccc(F)c4F)c3c2)CC1 [Compound 63, 1-(4-{3-[4-(2,3-Difluoro-phenyl)-isoxazol-5-yl]-1H-pyrrolo[2,3-b]pyridin-5-yl}-piperidin-1-yl)-ethanone]
200 to 1000 nM	N#CCC(=O)N1CCC(c2cnc3[nH]cc(-c4oncc4-c4cccc(F)c4F)c3c2)CC1 [Compound 64, 3-(4-{3-[4-(2,3-Difluoro-phenyl)-isoxazol-5-yl]-1H-pyrrolo[2,3-b]pyridin-5-yl}-piperidin-1-yl)-3-oxo-propionitrile]
< 200 nM	C=Cc1cnc2[nH]cc(-c3oncc3-c3cccc(F)c3F)c2c1 [Compound 66, 3-[4-(2,3-Difluoro-phenyl)-isoxazol-5-yl]-5-vinyl-1H-pyrrolo[2,3-b]pyridine]
200 to 1000 nM	Fc1cccnc1-c1cnc2[nH]cc(-c3oncc3-c3cccc(F)c3F)c2c1 [Compound 74, 3-[4-(2,3-Difluoro-phenyl)-isoxazol-5-yl]-5-(3-fluoro-pyridin-2-yl)-1H-pyrrolo[2,3-b]pyridine]
< 200 nM	Fc1cccc(-c2cnoc2-c2c[nH]c3ncc(-c4ncccn4)cc23)c1F [Compound 75, 3-[4-(2,3-Difluoro-phenyl)-isoxazol-5-yl]-5-pyrimidin-2-yl-1H-pyrrolo[2,3-b]pyridine]
< 200 nM	CN(C)C(=O)c1ccc(-c2cnc3[nH]cc(-c4oncc4-c4cccc(F)c4F)c3c2)nc1 [Compound 79, 6-{3-[4-(2,3-Difluoro-phenyl)-isoxazol-5-yl]-1H-pyrrolo [2,3-b]pyridin-5-yl}-N,N-dimethyl-nicotinamide]
1000 to 12500 nM	CN(C)c1ccnc(-c2cnc3[nH]cc(-c4oncc4-c4cccc(F)c4F)c3c2)c1 [Compound 80, (2-{3-[4-(2,3-Difluoro-phenyl)-isoxazol-5-yl]-1H-pyrrolo[2,3-b]pyridin-5-yl}-pyridin-4-yl)-dimethyl-amine]
200 to 1000 nM	CN(C)Cc1cc(Cl)nc(-c2cnc3[nH]cc(-c4oncc4-c4cccc(F)c4F)c3c2)c1 [Compound 81, (2-Chloro-6-{3-[4-(2,3-difluoro-phenyl)-isoxazol-5-yl]-1H-pyrrolo[2,3-b]pyridin-5-yl}-pyridin-4-ylmethyl)-dimethyl-amine]
200 to 1000 nM	CS(=O)(=O)n1ccc2cc(-c3cnc4[nH]cc(-c5oncc5-c5cccc(F)c5F)c4c3)cnc21 [Compound 97, 3′-[4-(2,3-Difluoro-phenyl)-isoxazol-5-yl]-1-methanesulfonyl-1H, 1′H-[5,5′]bi[pyrrolo[2,3-b]pyridinyl]]
< 200 nM	CS(=O)(=O)Nc1ccc(-c2cnc3[nH]cc(-c4oncc4-c4cccc(F)c4F)c3c2)cc1 [Compound 98, N-(4-{3-[4-(2,3-Difluoro-phenyl)-isoxazol-5-yl]-1H-pyrrolo[2,3-b]pyridin-5-yl}-phenyl)-methane sulfonamide]
1000 to 12500 nM	CNc1ccc2c(-c3oncc3-c3cccc(F)c3F)c[nH]c2n1 [Compound 102, {3-[4-(2,3-Difluoro-phenyl)-isoxazol-5-yl]-1H-pyrrolo[2,3-b]pyridin-6-yl}-methyl-amine]
< 200 nM	Fc1cccc(-c2cnoc2-c2c[nH]c3ncc(/C=C/n4cncn4)cc23)c1F [Compound 133, 3-[4-(2,3-Difluoro-phenyl)-isoxazol-5-yl]-5-(2-[1,2,4]triazol-1-yl-vinyl)-1H-pyrrolo[2,3-b]pyridine]
200 to 1000 nM	Cc1noc(-c2c[nH]c3ncccc23)c1-c1cccc(F)c1F [Compound 134, 3-[4-(2,3-Difluoro-phenyl)-3-methyl-isoxazol-5-yl]-1H-pyrrolo[2,3-b]pyridine]
200 to 1000 nM	O=c1[nH]ccc2c(-c3oncc3-c3cccc(F)c3F)c[nH]c12 [Compound 145, 3-[4-(2,3-Difluoro-phenyl)-isoxazol-5-yl]-1,6-dihydro-pyrrolo[2,3-c]pyridin-7-one]
1000 to 12500 nM	Nc1[nH]c2ncccc2c1-c1oncc1-c1cccc(F)c1F [Compound 152]
